Each structure is given as a SMILES string. pIC50: −log10 of the molar value.

The target in this assay is Metallo-beta-lactamase type 2 (Bacteria, UniProt C7C422). In words: Enzyme Activity: Determination of IC50 : The Class B enzyme activities were measured in the presence of the test inhibitor in a fluorescence assay against a commercially available substrate consisting of a cephalosporin core linking 7-hydroxycoumarin to fluorescein (CCF2-FA). The enzyme (NDM-1, IMP-1 or VIM-1) and the substrate were diluted in 100 mM KH2PO4 buffer (pH 7) containing 0.005% Tween-20 and 10 μM ZnSO4. In the assay, the final concentration of enzyme was 1 pM, 2 pM and 30 pM for NDM-1, IMP-1 and VIM-1, respectively, and the final concentration of CCF2-FA was 1.25 μM. The test inhibitor was dissolved in dimethylsulfoxide and diluted 1:50 in the assay, resulting in a final concentration range of 20 μM to 0.00063 μM. In a 384-well microplate, the test inhibitor was incubated with the metallo-β-lactamase enzyme and the substrate for 2 hours at 25° C. Fluorescence at 460 nm following excitation at 405 nm was measured. The IC50 value was determined from semi-logarithmic plots of enzyme inhibition versus inhibitor concentration, with a curve generated using a 4-parameter fit.
Chain of Metallo-beta-lactamase type 2 (C7C422 whole entry): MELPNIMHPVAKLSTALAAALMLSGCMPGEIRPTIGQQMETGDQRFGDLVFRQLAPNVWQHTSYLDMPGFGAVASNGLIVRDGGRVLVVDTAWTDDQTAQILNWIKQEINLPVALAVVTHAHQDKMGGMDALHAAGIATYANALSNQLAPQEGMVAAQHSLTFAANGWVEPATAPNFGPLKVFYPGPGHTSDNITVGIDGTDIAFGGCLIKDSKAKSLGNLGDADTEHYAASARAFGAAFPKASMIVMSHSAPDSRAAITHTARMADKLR
The pIC50 is the IC50 on a negative log10 scale, so that one unit is a factor of ten. Turning to `NC[C@@H](O)CNS(=O)(=O)c1ccc(Nc2ncc[nH]2)c(-c2nn[nH]n2)c1S(N)(=O)=O`, the pIC50 is 7.97. Turning to `NC[C@@H](O)CNS(=O)(=O)c1ccc(N2CC[C@H](CN)C2)c(-c2nn[nH]n2)c1S(N)(=O)=O`, the pIC50 is 7.77.

For `NCC1CCN(c2ccc(S(=O)(=O)N[C@@H]3CCNC3)c(S(N)(=O)=O)c2-c2nn[nH]n2)CCN1` (stereo partly drawn), the pIC50 was 7.72.

The values are drawn from ChEMBL document CHEMBL5728888, “Metallo-beta-lactamase inhibitors and methods of use thereof” (2021).
